The record followed here is patent publication US11986477B2, “Drug combination and use for treating tumors” (INXMED (NANJING) CO., LTD., priority 2022, dated 2024).

“And” between values parts separate entries of the source, which are not always exact repeats. Identical values can stand only once.

In data set [1] the test system is mouse colon cancer CT-26 cells. The data set can be described thus: In vivo antitumor efficacy, subcutaneous allograft tumor model of colon cancer CT-26 cells in BALB/c mice. As to conditions: for Tumor volume on day 0: baseline at grouping, mean ± standard error, n=6; for TGI: day 15, vs control group; for TGI / Tumor volume on day 15: IN10018 25 mg/kg, combination 20+25 mg/kg, p.o. QD; for Tumor volume on day 15: day 15 after administration by groups. As for the experimental part: […] incubator. The cells were passaged by routine digestion with trypsin-EDTA two to three times a week. When the cells were in the exponential growth phase with […] saturation, the cells were harvested, counted and inoculated.
0.1 mL of a cell suspension containing 3×10^5 cells was inoculated subcutaneously into the right back of each mouse. When the tumor volume reached ˜59 mm^3 (on day 12 after cell inoculation), the mice were randomized into groups for administration according to the tumor volume, and the grouping information is shown in Table 2.
The tumor diameter was measured with a vernier caliper three times a week. The tumor volume was calculated by the formula: V=0.5×a×b^2, where a and b indicated the long and short diameter of the tumor, respectively.
Statistical analysis was performed based on tumor volume and tumor weight at the end of the trial using Prism Graphpad software. Comparisons among multiple groups were analyzed using Two-way ANOVA, Fisher's LSD test method. P<0.05 was considered a significant difference.

In the next data set the test system is lung cancer KPL cells. The data set can be described thus: Lung cancer KPL cells incubated with drug for 48 hours, observed under microscope. As to conditions: 48 h incubation; IN10018 10 μM, AZD9291 10 μM, Almonertinib 4.7 μM, Alflutinib 4.7 μM, single or combined. Type of data set: cell-based.
Data set [2] deals with human non-small cell lung cancer HCC827 cells. The data set can be described thus: In vivo antitumor efficacy, BALB/c-nude mouse subcutaneous xenograft tumor model of HCC827 cells. As to conditions: for tumor growth inhibition compared with the blank control group / TGI / Tumor volume on day 32 / Tumor volume on day 37: AZD9291 3 mg/kg, IN10018 25 mg/kg, combination 3+25 mg/kg; for tumor growth inhibition compared with the blank control group: statistical difference from control; for Tumor volume on day 0: baseline at grouping, n=5; for Tumor volume on day 0 / Tumor volume on day 32 / Tumor volume on day 37: mean ± SD; for TGI: day 32, vs control group; for TGI / Tumor volume on day 32 / Tumor volume on day 37: PO QD; for Tumor volume on day 32: day 32 after administration by groups; for Tumor volume on day 37: day 37 after administration by groups. As for the experimental part:
5% CO2 incubator. The cells were passaged by routine digestion with trypsin-EDTA two to three times a week. When the cells were in the exponential growth phase with 80%-90% saturation, the cells were harvested, counted and inoculated. 0.1 mL of a cell suspension containing 5×10^6 cells was inoculated subcutaneously into the right back of each mouse.
The experiment criteria was to investigate whether the tumor growth was inhibited, delayed or cured. Tumor diameter was measured three times a week using vernier calipers. Tumor volume was calculated according to the following formula: V=0.5×a×b^2, where a and b indicated the long diameter and short diameter of the tumor, respectively.
The tumor suppressive efficacy of the compounds was evaluated by TGI (%), which reflects the tumor growth inhibition rate.
Statistical analysis was performed based on tumor volume at the end of the trial using Prism Graphpad software. Comparisons among multiple groups were analyzed using Two-way ANOVA, Fisher's LSD test method, and P<0.05 was considered a significant difference. Comparisons between the two groups were analyzed using the t-test, Mann Whitney test method test, and P<0.05 was considered a significant difference.

Data set [3] in a line: Body weight and survival of HCC827 tumor-bearing BALB/c-nude mice during dosing. Type of data set: in vivo. As for the experimental part: The use and welfare of laboratory animals were in accordance with the AAALAC regulations. Animals were monitored daily for health and death. Routine examinations included observation of tumor growth and the effects of drug treatment on the animals' daily behavior such as behavioral activities, food and water intake (visual inspection only), weight changes, appearance signs or other abnormalities. Animal deaths and side effects in each group were recorded based on the number of animals in each group.
The assay was carried out according to the dosing regimen, during which the animals were observed daily for feeding and drinking, and their body weights were recorded three times a week.

Turning to `COc1cc(C(=O)NC2CCN(C)CC2)c(F)cc1Nc1ncc(C(F)(F)F)c(Oc2cccc3c2C(=O)N(C)C3)n1` [IN10018], the “Tumor volume on day 0” value in data set [1] is on record as 39.2 ± 17.9 mm^3. Further, in data set [1] (AZD9291 20 mg/kg), the TGI is on record as −14.5% and the “Tumor volume on day 15” value is 1766.9±732.5 mm^3. Further, the “cell status observed under microscope” value in the data set on lung cancer KPL cells is “better cell status”. In data set [2], the “tumor growth inhibition compared with the blank control group” value was “obvious tumor growth inhibition”, the “Tumor volume on day 0” value was 147.7 ± 56.3 mm^3, the TGI stood at 104.1% and the “Tumor volume on day 32” value worked out at 79.2±51.8 mm^3. For the same compound, the “Tumor volume on day 37” value in data set [2] is given as 69.6±46.6 mm^3.

In the case of `C=CC(=O)Nc1cc(Nc2nccc(-c3cn(C4CC4)c4ccccc34)n2)c(OC)cc1N(C)CCN(C)C` [Almonertinib], in the data set on lung cancer KPL cells, the “cell status observed under microscope” value was “poor cell status”.

Turning to `C=CC(=O)Nc1cc(Nc2nccc(-c3cn(C)c4ccccc34)n2)c(OC)cc1N(C)CCN(C)C` [AZD9291, Osimertinib], the “tumor growth inhibition compared with the blank control group” value in data set [1] (AZD9291 20 mg/kg, AZD9291+IN10018 20+25 mg/kg, statistical difference from control) was “obvious tumor growth inhibition”. Moreover, the “Tumor volume on day 0” value in data set [1] worked out at 37.9 ± 12.9 mm^3. For the same compound, in data set [1] (AZD9291 20 mg/kg), the TGI worked out at 33.2% and the “Tumor volume on day 15” value is listed as 1046.3±407.8 mm^3. Moreover, the “cell status observed under microscope” value with lung cancer KPL cells was “poor cell status”. In data set [2], the “tumor growth inhibition compared with the blank control group” value is given as “obvious tumor growth inhibition”, the “Tumor volume on day 0” value was found to be 148.6 ± 59.6 mm^3, the TGI is on record as 107.7% and the “Tumor volume on day 32” value came out at 20.3±4.7 mm^3. Also, the “Tumor volume on day 37” value in data set [2] amounted to 17.0±6.7 mm^3. The “Body weight on day 0” value in data set [3] (baseline, day of administration by groups, mean ± SD) is 19.9 g and 19.9 ± 0.9 g. In data set [3] (day 37, AZD9291 3 mg/kg, IN10018 25 mg/kg, combination 3+25 mg/kg PO QD, mean ± SD), the “Body weight on day 37” value is 19.4 g and 19.4 ± 1.4 g. The “Rate of change in body weight” value in data set [3] (day 37 vs day 0, AZD9291 3 mg/kg, IN10018 25 mg/kg, combination 3+25 mg/kg) was −2.2%. In data set [3] (number of animals surviving on day 0/after administration, AZD9291 3 mg/kg, IN10018 25 mg/kg, combination 3+25 mg/kg), the “Animal Survival” value was 5/5.

In the case of `C=CC(=O)Nc1cc(Nc2nccc(-c3cn(C)c4ccccc34)n2)c(OCC(F)(F)F)nc1N(C)CCN(C)C` [Alflutinib], the “cell status observed under microscope” value with lung cancer KPL cells is “poor cell status”.
